Where “and” joins values, the source holds several entries; their conditions need not be identical. Identical values can stand only once.
Assays:
SGLT1 = assay: Glucose transport inhibitor cell screening assay, 5 mM D-glucose for 15 minutes; conditions: for % Glucose Transport inhibition 5 mM / SGLT1 inhibitory activity (in words): 5 mM D-glucose; for % Glucose Transport inhibition 5 mM: 15 minutes, actives at 300 uM, differentiated Caco-2 monolayer; for SGLT1 inhibitory activity (in words): Caco-2 cell model; for Class (assigned class of transporter inhibited): based on inhibition at 5 mM and 25 mM D-glucose
GLUT2 = target: T1, GLUT2 (Homo sapiens, UniProt P11168); assay: Glucose transport inhibitor cell screening assay, 25 mM D-glucose for 30 minutes; conditions: for % Glucose Transport inhibition 25 mM / GLUT2 inhibition (in words): 25 mM D-glucose; for % Glucose Transport inhibition 25 mM: 30 minutes, actives at 150 uM, differentiated Caco-2 monolayer; for inhibition at 25000 µM: Caco-2, read-out: % Glucose Transport inhibition 25 mM; for GLUT2 inhibition (in words): Caco-2 cell model
T1 sequence (P11168 1-524): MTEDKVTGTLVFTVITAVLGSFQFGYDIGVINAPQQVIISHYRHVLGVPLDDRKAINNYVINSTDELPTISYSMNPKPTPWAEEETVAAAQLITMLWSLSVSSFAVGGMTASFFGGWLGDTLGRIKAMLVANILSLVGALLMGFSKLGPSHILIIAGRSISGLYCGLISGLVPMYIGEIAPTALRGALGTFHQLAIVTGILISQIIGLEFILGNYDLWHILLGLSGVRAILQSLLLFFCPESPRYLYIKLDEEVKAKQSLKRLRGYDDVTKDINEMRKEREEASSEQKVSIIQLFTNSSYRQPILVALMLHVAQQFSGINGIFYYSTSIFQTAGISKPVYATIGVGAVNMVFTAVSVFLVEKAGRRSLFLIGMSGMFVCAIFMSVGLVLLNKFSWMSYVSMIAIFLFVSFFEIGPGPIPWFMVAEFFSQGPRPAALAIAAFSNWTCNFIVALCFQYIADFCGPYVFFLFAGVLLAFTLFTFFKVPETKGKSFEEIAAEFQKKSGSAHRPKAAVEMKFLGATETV

[1] = target: T2, Human Lactase Phloridzin Hydrolase (hLPH) (Homo sapiens, UniProt P09848); assay: hLPH enzyme assay (glucoside hydrolysis by LPH extract); assay type: in vitro ADME; conditions: for μM substrate hydrolysed/hr: glucoside 1.0 mM, 10% LPH extract (Caco2), 1 hour, 37° C., pH 6.0; for Resistance to hydrolysis - % Q4G: resistance to LPH hydrolysis relative to quercetin-4-glucoside (Q4G)
T2 construct: at confluence for 21 days prior to extraction with a Novagen ProteoExtract™ trans-membrane Protein Extraction kit; endogenous in cells; host or cells: Caco-2 cells (ATCC), 21 days at confluence; membrane protein extract desalted over G-25 Sephadex
Experimental: Extracts were stored at −80° C. in 50 ul aliquots. Prior to use extracts were semi-purified, removing low molecular weight interfering components by passing through a small G-25 Sephadex 50-100 μl spin-column (Roche or ThermoFisher Scientific). 10 μl of semi-purified LPH extract was added to 90 μl of glucoside (1.0 mM final concentration) in 0.1 M maleate (Sigma) buffer, pH 6.0 and incubated for 60 minutes at 37° C. The reaction was terminated by addition of 200 μl 2M Tris (Sigma), pH 8.0. […] This allowed a full recovery of glucose which was measured using the Amplex® Red Glucose/Glucose Oxidase Assay. […] Fluorescence was read on a SpectraMax Gemini EM SN plate reader (Molecular Devices) (excitation. 530 nm and emission at 590 nm).

[2] = test system: differentiated Caco-2 monolayers; assay: Glucose transport cell model, total cumulative glucose transport (synergy); assay type: cell-based, Human; conditions: active only in 25 mM D-glucose for remaining 45 minutes (NC Pz 300 μM, NC R 75 μM)

T2 sequence (P09848 869-1927): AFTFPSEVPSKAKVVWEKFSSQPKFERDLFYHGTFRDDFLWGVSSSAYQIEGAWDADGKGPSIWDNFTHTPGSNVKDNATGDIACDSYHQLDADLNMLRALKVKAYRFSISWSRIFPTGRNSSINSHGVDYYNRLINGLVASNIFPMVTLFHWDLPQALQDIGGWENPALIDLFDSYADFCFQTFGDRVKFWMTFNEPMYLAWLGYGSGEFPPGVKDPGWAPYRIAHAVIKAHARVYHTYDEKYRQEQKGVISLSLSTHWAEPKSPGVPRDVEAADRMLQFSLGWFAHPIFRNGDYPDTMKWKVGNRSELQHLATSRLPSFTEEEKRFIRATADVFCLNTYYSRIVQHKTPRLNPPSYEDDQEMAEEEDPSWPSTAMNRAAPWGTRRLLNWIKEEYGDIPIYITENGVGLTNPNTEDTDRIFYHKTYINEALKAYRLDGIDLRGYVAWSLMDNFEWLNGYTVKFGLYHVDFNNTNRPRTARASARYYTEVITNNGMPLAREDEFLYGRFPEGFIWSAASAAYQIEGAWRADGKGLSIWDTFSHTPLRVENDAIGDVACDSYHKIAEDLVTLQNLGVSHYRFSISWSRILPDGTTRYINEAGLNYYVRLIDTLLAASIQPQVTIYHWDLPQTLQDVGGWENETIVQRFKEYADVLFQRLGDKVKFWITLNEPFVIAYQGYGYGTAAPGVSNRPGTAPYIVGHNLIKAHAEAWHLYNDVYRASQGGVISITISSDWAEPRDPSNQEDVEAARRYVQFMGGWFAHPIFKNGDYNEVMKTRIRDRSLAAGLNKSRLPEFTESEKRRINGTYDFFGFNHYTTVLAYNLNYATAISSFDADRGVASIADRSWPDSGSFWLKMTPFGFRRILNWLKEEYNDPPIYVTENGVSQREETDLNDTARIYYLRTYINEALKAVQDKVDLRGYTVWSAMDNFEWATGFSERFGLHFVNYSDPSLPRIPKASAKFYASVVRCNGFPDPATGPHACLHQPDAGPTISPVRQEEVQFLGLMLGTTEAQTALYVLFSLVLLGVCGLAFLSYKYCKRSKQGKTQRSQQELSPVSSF

For `O=c1c(O)c(-c2ccc(O)cc2)oc2cc(O[C@@H]3O[C@H](CO)[C@@H](O)[C@H](O)[C@H]3O)cc(O)c12` [Kaempferol 7-O-glucoside], the “% Glucose Transport inhibition 5 mM” value (SGLT1) was 43.89%, the “SGLT1 inhibitory activity (in words)” value (SGLT1) was “inhibition of SGLT1” and the “Class (assigned class of transporter inhibited)” value (SGLT1) was “SGLT1”. The “% Glucose Transport inhibition 25 mM” value (GLUT2) was 14.42%, the μM substrate hydrolysed/hr [1] was 0.618 μM substrate hydrolysed/hr and the “Resistance to hydrolysis - % Q4G” value ([1]; listed as K7G) was 80.05%.

`O=C(CCc1ccc(O)cc1)c1c(O)cc(O)cc1O[C@@H]1O[C@H](CO)[C@@H](O)[C@H](O)[C@H]1O` [Phloridzin, reference compound] was tested, and the “total Cumulative Glucose Transport (tCGT), active added later with high D-glucose” value [2] was “no inhibition”, the inhibition at 25000 µM (GLUT2) was 18.4% and the μM substrate hydrolysed/hr [1] was 0.507 μM substrate hydrolysed/hr. For the same compound, the “Resistance to hydrolysis - % Q4G” value [1] was “at least 20%” and the “Resistance to hydrolysis - % Q4G” value ([1]; listed as PLZ) was 83.64%.

In the case of `O=c1c(-c2ccc(O)cc2)coc2cc(O[C@@H]3O[C@H](CO)[C@@H](O)[C@H](O)[C@H]3O)ccc12` [Daidzein-7-glucoside], the “% Glucose Transport inhibition 5 mM” value (SGLT1) is reported as 35.03%, the “SGLT1 inhibitory activity (in words)” value (SGLT1) is reported as “inhibition of SGLT1” and the “Class (assigned class of transporter inhibited)” value (SGLT1) is reported as “SGLT1”. For the same compound, the “% Glucose Transport inhibition 25 mM” value (GLUT2) was 7.23%.

With `O=C1CC(c2ccc(O)cc2)Oc2cc(O[C@@H]3O[C@H](CO)[C@@H](O)[C@H](O)[C@H]3O)cc(O)c21` (stereo partly drawn) [Naringenin-7-O-glucoside] the “% Glucose Transport inhibition 25 mM” value (GLUT2) was 0.06% and the “Resistance to hydrolysis - % Q4G” value ([1]; listed as N7G) was 49.5% and 49.52%.

With `OC[C@H]1O[C@@H](Oc2cc3c(O)cc(O)cc3[o+]c2-c2ccc(O)cc2)[C@H](O)[C@@H](O)[C@@H]1O` [Pelargonidin-3-glucoside] the “Resistance to hydrolysis - % Q4G” value ([1]; listed as P3G) was 58.94%.

For `Oc1cc(O)c2cc(O)c(-c3cc(O)c(O)c(O)c3)[o+]c2c1` [Delphinindin], the “Class (assigned class of transporter inhibited)” value (SGLT1) was “None” and the “% Glucose Transport inhibition 25 mM” value (GLUT2) was 15.86%.

In the case of `O=c1c(-c2ccc(O)cc2)coc2c([C@@H]3O[C@H](CO)[C@@H](O)[C@H](O)[C@H]3O)c(O)ccc12` [Daidzein-8-C-glucoside], the “Resistance to hydrolysis - % Q4G” value ([1]; listed as D8G) is reported as 82.19%.

`O=C(O)/C=C/c1ccc(O)c(O)c1` [caffeic acid] was tested, and the “SGLT1 inhibitory activity (in words)” value (SGLT1) was “no inhibitory activity” and the “GLUT2 inhibition (in words)” value (GLUT2) was “no inhibitory activity”.

`O=C(/C=C/c1ccc(O)c(O)c1)O[C@H](Cc1ccc(O)c(O)c1)C(=O)O` [rosmarinic acid] was tested, and the “SGLT1 inhibitory activity (in words)” value (SGLT1) was “no inhibitory activity” and the “GLUT2 inhibition (in words)” value (GLUT2) was “no inhibitory activity”.

For `O=C1C[C@@H](c2ccc(O)c(O)c2)Oc2cc(O[C@@H]3O[C@H](CO)[C@@H](O)[C@H](O)[C@H]3O)cc(O)c21` [Eriodictyol-7-O-glucoside], the “% Glucose Transport inhibition 25 mM” value (GLUT2) was 4.98%.

In the case of `Oc1ccc(C=Cc2cc(O)cc(O)c2)cc1` [Resveratrol], the “total Cumulative Glucose Transport (tCGT), active added later with high D-glucose” value [2] is reported as “significant reduction”, the “% Glucose Transport inhibition 5 mM” value (SGLT1) is reported as 76.07% and the “Class (assigned class of transporter inhibited)” value (SGLT1) is reported as “GLUT2 (GLUT2 having >20% inhibition at both 5 mM & 25 mM)”. The inhibition at 25000 µM (GLUT2) was 59% and the “GLUT2 inhibition (in words)” value (GLUT2) was “GLUT2 inhibitors”.

With `O=c1cc(-c2ccc(O)cc2)oc2c([C@@H]3O[C@H](CO)[C@@H](O)[C@H](O)[C@H]3O)c(O)cc(O)c12` [Apigenin-8-C-glucoside] the “% Glucose Transport inhibition 5 mM” value (SGLT1) was 33.84%, the “SGLT1 inhibitory activity (in words)” value (SGLT1) was “inhibition of SGLT1” and the “Class (assigned class of transporter inhibited)” value (SGLT1) was “SGLT1”. For the same compound, the “% Glucose Transport inhibition 25 mM” value (GLUT2) was 5.76%, the μM substrate hydrolysed/hr [1] was 0.685 μM substrate hydrolysed/hr and the “Resistance to hydrolysis - % Q4G” value ([1]; listed as A8G) was 77.90%.

For `OC[C@H]1O[C@@H](Oc2ccc(O)cc2)[C@H](O)[C@@H](O)[C@@H]1O` [arbutin], the “SGLT1 inhibitory activity (in words)” value (SGLT1) was “lack of SGLT1 inhibitory activity”.

In the case of `O=C(/C=C/c1ccc(O)c(O)c1)O[C@@H]1C[C@](O)(C(=O)O)C[C@@H](O)[C@H]1O` [chlorogenic acid], the “SGLT1 inhibitory activity (in words)” value (SGLT1) is reported as “no inhibitory activity” and the “GLUT2 inhibition (in words)” value (GLUT2) is reported as “no inhibitory activity”.

With `O=c1cc(-c2ccc(O)cc2)oc2cc(OC3O[C@H](CO)[C@@H](O)[C@H](O)[C@H]3O)cc(O)c12` (stereo partly drawn) [Apigenin-7-glucoside] the “% Glucose Transport inhibition 25 mM” value (GLUT2) was 12.81%.

For `COc1cc(-c2[o+]c3cc(O)cc(O)c3cc2O[C@@H]2O[C@H](CO)[C@H](O)[C@H](O)[C@H]2O)cc(OC)c1O` [Malvidin 3-O-Galactoside], the “% Glucose Transport inhibition 25 mM” value (GLUT2) was 10.41%.

With `COc1cc(-c2[o+]c3cc(O)cc(O)c3cc2O)cc(OC)c1O` [Malvidin] the “% Glucose Transport inhibition 5 mM” value (SGLT1) was 14.21% and the inhibition at 25000 µM (GLUT2) was 4.99%.

With `Oc1cc(O)c2cc(O)c(-c3ccc(O)c(O)c3)[o+]c2c1` [Cyanidin] the “% Glucose Transport inhibition 5 mM” value (SGLT1) was 7.93%.

For `COc1cc(/C=C/c2ccc(O)cc2)cc(OC)c1` [Pterostilbene], the “% Glucose Transport inhibition 5 mM” value (SGLT1) was 18.44% and the inhibition at 25000 µM (GLUT2) was 8.26%.

`Oc1ccc(-c2[o+]c3cc(O)cc(O)c3cc2O)cc1` [Pelargonidin] was tested, and the “% Glucose Transport inhibition 5 mM” value (SGLT1) was 4.07% and the inhibition at 25000 µM (GLUT2) was 16.5%.

With `O=c1cc(-c2ccc(O)c(O)c2)oc2cc(O[C@@H]3O[C@H](CO)[C@@H](O)[C@H](O)[C@H]3O)cc(O)c12` [Luteolin-7-glucoside] the “% Glucose Transport inhibition 5 mM” value (SGLT1) was 44.09%, the “SGLT1 inhibitory activity (in words)” value (SGLT1) was “inhibition of SGLT1” and the “Class (assigned class of transporter inhibited)” value (SGLT1) was “SGLT1”. For the same compound, the “% Glucose Transport inhibition 25 mM” value (GLUT2) was 17.03%, the μM substrate hydrolysed/hr [1] was 0.814 μM substrate hydrolysed/hr and the “Resistance to hydrolysis - % Q4G” value ([1]; listed as L7G) was 73.72%.

In the case of `O=c1c(O[C@@H]2O[C@H](CO)[C@@H](O)[C@H](O)[C@H]2O)c(-c2ccc(O)cc2)oc2cc(O)cc(O)c12` [Kaempferol 3-O-glucoside], the “Resistance to hydrolysis - % Q4G” value ([1]; listed as K3G) is reported as 92.8% and 92.78%.

With `COc1cc(-c2[o+]c3cc(O)cc(O)c3cc2O[C@@H]2O[C@H](CO)[C@@H](O)[C@H](O)[C@H]2O)cc(OC)c1O` [Malvidin-3-O-glucoside] the “% Glucose Transport inhibition 25 mM” value (GLUT2) was 10.91%.

For `Oc1cc(O)cc(/C=C/c2ccc(O)c(O)c2)c1` [Piceatannol], the “% Glucose Transport inhibition 5 mM” value (SGLT1) was 89.28%, the “Class (assigned class of transporter inhibited)” value (SGLT1) was “GLUT2 (GLUT2 having >20% inhibition at both 5 mM & 25 mM)” and the inhibition at 25000 µM (GLUT2) was 32.7%.
